pIC50, pKd: −log10 of the molar value.
How the values were obtained:
[1] = test system: GM-CSFR/JAK2/STAT5 pathway; assay: CSTF-1 cell-based reporter assay (beta-lactamase reporter, GM-CSF stimulated); conditions: Homo sapiens; csTF-1 cells, GM-CSF at 2 ng/mL, 4 hours; read-out: Cell Assay: CS TF-1 reporter assay IC50
Method: CSTF-1 cells are derived from the human erythroleukemia cell line that is growth dependent on GM-CSF and has an intact GM-CSFR/JAK2/STAT5 pathway. The cell line contains stably integrated beta-lactamase reporter gene under the control of the […] (irf 1) response element recognized by the activated transcription factor STATS. csTF-1 cells (Invitrogen K1219) were washed with assay media (97% OPTIMEM/0.5% dialyzed FBS/0.1 mM NEAA/1 mM Na pyr/P/S) and seeded in the same media at 5×10^5 cell/mL in T150 flask. After 16 hour incubation, cells were seeded at 2×10^5 cell/well in 50 μl volume, into Costar, clear bottom, 96-well assay plates. Serial dilutions of compounds were added to the plates with final DMSO concentration at 0.5% and GM-CSF at 2 ng/mL and the plates were then incubated at […] and 5% CO2 for 4 hours. The plates were brought to room temperature before adding Substrate Mixture according to manufacturer's protocol (Invitrogen, Catalog #K1085). The assay plates containing the substrate mixture were incubated in the dark at room temperature for 2 hours. Blue and green fluorescence was measured with excitation at 409 nm and emission at 460 nm (for blue) and excitation at 409 nm and emission at 530 nm (for green) using Spectra Max Gemini EM.

JAK2 = biological target: T1, JAK2 (Homo sapiens, UniProt O60674); assay: Competition binding assay, Kd against JAK2
T1 construct: made in house; host or cells: T7 phage display or HEK-293 cells (alternatives; not specified per kinase)
Method: (§1) Competition binding assays used herein were developed, validated and performed as described in Fabian et al., Nature Biotechnology 2005, 23, 329-336. Kinases were produced as fusions to T7 phage (See, Fabian et al. or WO04/015142) or alternatively, the kinases were expressed in HEK-293 cells and subsequently tagged with DNA for PCR detection (See, WO08/005,310). For the binding assays, streptavidin-coated magnetic beads were treated with biotinylated affinity ligands for 30 min at rt to generate affinity resins. The liganded beads were blocked with excess biotin and washed with blocking buffer (SeaBlock (Pierce), 1% BSA, 0.05% Tween 20, 1 mM DTT) to remove unbound ligand and to reduce non-specific binding. Binding reactions were assembled by combining kinase, liganded affinity beads, and test compounds in 1× binding buffer (20% SeaBlock, 0.17×PBS, 0.05% Tween 20, 6 mM DTT). Test compounds were prepared as 100× stocks in DMSO and rapidly diluted into the aqueous environment. DMSO was added to control assays lacking a test compound. Primary screen interactions were performed in polypropylene 384-well plates in a final volume of 34 μL, while Kd determinations were performed in polystyrene 96-well plates in a final volume of 135 μL. The assay plates were incubated at room temperature with shaking for 1 hour, long enough for binding reactions to reach equilibrium, and the affinity beads were washed extensively with wash buffer (1×PBS, 0.05% Tween 20) to remove unbound protein. The beads were then resuspended in elution buffer (1×PBS, 0.05% Tween 20, 2 μM non-biotinylated affinity ligand) and incubated at room temperature with shaking for 30 min. The kinase concentration in the eluates was measured by quantitative PCR. Each kinase was tested individually against each compound. Kds were determined using eleven serial threefold dilutions. A selectivity score, which is a quantitative measure of selectivity of a compound against a panel of enzymes, may be calculated for a compound by dividing the number of enzymes for which a compound meets a set criteria, (for example, a binding constant of 100 nM or less), by the total number of enzymes tested.

JAK3 = biological target: T2, JAK3 (Homo sapiens, UniProt P52333); assay: Competition binding assay, Kd against JAK3
T2 construct: made in house; host or cells: T7 phage display or HEK-293 cells (alternatives; not specified per kinase)
T2 sequence (P52333 1-1124): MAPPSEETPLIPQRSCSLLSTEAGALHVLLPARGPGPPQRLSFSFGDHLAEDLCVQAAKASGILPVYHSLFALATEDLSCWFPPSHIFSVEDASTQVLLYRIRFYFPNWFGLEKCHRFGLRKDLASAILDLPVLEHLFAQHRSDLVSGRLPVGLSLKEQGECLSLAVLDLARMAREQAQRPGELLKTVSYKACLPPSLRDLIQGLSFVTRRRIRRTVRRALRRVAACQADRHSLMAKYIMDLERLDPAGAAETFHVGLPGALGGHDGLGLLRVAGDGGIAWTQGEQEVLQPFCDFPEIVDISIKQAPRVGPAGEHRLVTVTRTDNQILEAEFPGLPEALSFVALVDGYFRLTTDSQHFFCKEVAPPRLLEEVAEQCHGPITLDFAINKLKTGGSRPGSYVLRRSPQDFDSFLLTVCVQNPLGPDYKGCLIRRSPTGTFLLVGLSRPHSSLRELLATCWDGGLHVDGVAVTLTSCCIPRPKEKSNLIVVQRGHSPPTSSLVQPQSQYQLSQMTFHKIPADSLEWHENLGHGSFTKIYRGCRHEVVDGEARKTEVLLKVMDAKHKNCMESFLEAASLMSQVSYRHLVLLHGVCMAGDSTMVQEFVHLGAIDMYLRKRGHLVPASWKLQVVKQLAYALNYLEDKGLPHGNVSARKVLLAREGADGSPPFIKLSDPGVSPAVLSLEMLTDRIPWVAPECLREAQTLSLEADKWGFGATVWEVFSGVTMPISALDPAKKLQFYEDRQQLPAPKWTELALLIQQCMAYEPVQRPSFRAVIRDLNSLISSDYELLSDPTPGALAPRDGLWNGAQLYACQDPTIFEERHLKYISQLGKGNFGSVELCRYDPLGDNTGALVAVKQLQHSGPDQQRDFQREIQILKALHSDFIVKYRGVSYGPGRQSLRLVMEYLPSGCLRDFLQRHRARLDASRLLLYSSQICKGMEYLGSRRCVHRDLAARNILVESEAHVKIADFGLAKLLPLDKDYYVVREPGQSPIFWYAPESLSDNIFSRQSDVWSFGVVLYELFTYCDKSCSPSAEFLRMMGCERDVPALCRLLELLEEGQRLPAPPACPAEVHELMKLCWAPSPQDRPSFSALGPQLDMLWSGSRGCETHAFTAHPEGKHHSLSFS
Method: as §1

[2] = test system: distinct kinases tested excluding mutant variants, typically 359 or 386 kinases; assay: Kinase selectivity in competition binding assays (S10 score; kinases within 100-fold of JAK2 Kd); conditions: compound at 10 μM; fraction of kinases with inhibition of 90% or greater
Method: as §1
In certain embodiments, the compounds provided herein bind to JAK2 kinase with higher specificity as compared to non-mutant and non-JAK family kinases. For certain compounds provided herein, binding constants for less than 10 non-mutant and non-JAK family kinases are within 100-fold of the binding constant for JAK2 kinase for compounds provided herein. For certain compounds provided herein, binding constants for less than 8 non-mutant and non-JAK family kinases are within 100-fold of the binding constant for JAK2 kinase for compounds provided herein. […]

T1 sequence (O60674 whole entry): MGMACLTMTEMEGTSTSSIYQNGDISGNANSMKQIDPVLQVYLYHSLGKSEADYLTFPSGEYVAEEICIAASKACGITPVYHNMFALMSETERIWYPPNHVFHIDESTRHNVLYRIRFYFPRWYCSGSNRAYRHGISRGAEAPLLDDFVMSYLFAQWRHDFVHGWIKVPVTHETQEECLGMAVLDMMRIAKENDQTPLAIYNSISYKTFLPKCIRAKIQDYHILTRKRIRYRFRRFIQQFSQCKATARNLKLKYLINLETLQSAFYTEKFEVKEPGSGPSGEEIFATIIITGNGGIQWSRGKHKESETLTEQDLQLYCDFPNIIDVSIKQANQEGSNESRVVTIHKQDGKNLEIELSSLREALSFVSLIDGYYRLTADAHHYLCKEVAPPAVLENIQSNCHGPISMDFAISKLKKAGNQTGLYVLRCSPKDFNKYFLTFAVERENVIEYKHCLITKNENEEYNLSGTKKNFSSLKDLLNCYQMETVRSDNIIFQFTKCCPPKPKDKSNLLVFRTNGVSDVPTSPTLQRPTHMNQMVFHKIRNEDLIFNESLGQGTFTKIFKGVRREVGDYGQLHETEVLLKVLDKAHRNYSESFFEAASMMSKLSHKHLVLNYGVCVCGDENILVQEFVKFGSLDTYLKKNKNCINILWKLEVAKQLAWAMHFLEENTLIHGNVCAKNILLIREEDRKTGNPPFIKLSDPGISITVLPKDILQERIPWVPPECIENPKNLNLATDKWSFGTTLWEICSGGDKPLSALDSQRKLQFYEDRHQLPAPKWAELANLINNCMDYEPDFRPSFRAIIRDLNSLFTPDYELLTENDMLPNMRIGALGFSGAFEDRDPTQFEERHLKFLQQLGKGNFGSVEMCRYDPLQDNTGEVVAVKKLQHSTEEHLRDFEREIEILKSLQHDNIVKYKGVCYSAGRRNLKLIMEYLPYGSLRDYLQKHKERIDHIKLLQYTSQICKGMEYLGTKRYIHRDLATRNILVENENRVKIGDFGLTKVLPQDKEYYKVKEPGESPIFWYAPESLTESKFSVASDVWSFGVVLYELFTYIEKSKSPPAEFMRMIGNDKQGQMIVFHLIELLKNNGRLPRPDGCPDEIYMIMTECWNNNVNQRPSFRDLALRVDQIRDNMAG

SMILES	pIC50 [1]	pKd (JAK2)	pKd (JAK3)	S-Score: S(10) at 10 μM [2]
Cn1cnc(Nc2nc(C(O)c3ccc(F)cc3)nc3ccccc23)c1 (racemic) [Example 2, (R,S)-(4-fluorophenyl)(4-(1-methyl-1H-imidazol-4-ylamino)quinazolin-2-yl)methanol]	6.30 to 7.00	≥ 8.00	7.00 to 8.00	A (A ≦ 0.3)
OC(c1ccc(F)cc1)c1nc(Nc2c[nH]cn2)c2ccccc2n1 (racemic) [Example 3, (R,S)-(4-(1H-imidazol-4-ylamino)quinazolin-2-yl)(4-fluorophenyl)methanol]	< 6.30	7.30 to 8.00	< 7.00	A (A ≦ 0.3)
OC(c1ccc(F)cc1)c1nc(Nc2cscn2)c2ccccc2n1 (racemic) [Example 4, (R,S)-(4-fluorophenyl)(4-(thiazol-4-ylamino)quinazolin-2-yl)methanol]	< 6.30	7.30 to 8.00	< 7.00	A (A ≦ 0.3)
Cc1cnc(Nc2nc(C(O)c3ccc(F)cc3)nc3ccccc23)s1 (racemic) [Example 5, (R,S)-(4-fluorophenyl)(4-(5-methylthiazol-2-ylamino)quinazolin-2-yl)methanol]	< 6.30	≥ 8.00	< 7.00	A (A ≦ 0.3)

— patent publication US20130225614A1, “4-AZOLYLAMINOQUINAZOLINE DERIVATIVES AND METHODS OF USE THEREOF” (Ambit Biosciences Corporation, priority 2010, published 2013)
